Experimental data taken from US10219516B2, “Molecules having pesticidal utility, and intermediates, compositions, and processes, related thereto” (priority 2015, dated 2019).

What was measured:
Assay type in all cases: in vivo
[1] = tested on: Cabbage Looper (Trichoplusia ni, TRIPNI); experiment: Bioassay on Cabbage Looper (CL), 128-well diet tray assay; conditions: Trichoplusia ni; Cabbage Looper, 128-well diet tray assay; read-out: CL rating
Method in brief: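 Using eight wells per molecule, artificial diet was dosed at 50 μg/cm^2 with compound in 90:10 acetone-water and dried before one to five second-instar larvae were added per well. Covered vented trays were kept at 25° C. with 14:10 light-dark for five to seven days, then per-well percent mortality was recorded and averaged.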

[2] = tested on: Yellow Fever Mosquito (Aedes aegypti, AEDSAE); experiment: Bioassay on Yellow Fever Mosquito (YFM), 96-well plate larval assay; conditions: Yellow Fever Mosquito, 96-well plate larval assay
Method in brief: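 Aedes aegypti larvae (about 1 day old) in liver-powder water were added to plates dispensed from DMSO master plates (4000 ppm stock) diluted with 90:10 water/acetone; six replicate plates per master. Lidded plates were held at room temperature for 3 days, then each well was scored for mortality.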

[3] = tested on: Beet Armyworm (Spodoptera exigua, LAPHEG); experiment: Bioassay on Beet Armyworm (BAW), 128-well diet tray assay; conditions: Beet Armyworm, 128-well diet tray assay, read-out: BAW rating
Method in brief: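 Diet tray, 8 wells/compound; 50 μg/cm^2 applied to diet surface (90:10 acetone-water), dried. 1–5 L2 larvae/well; 25° C., 14:10 L:D, 5–7 d. Read-out: % mortality, mean of 8 wells.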

Row | Structure (SMILES) | pest or weed control at 50 µg/cm2 [1] | YFM rating [2] | pest or weed control at 50 µg/cm2 [3]
1 | Cc1cc(F)ccc1N(C)C(=O)c1cc(NC(=O)[C@H]2[C@H](c3cc(Cl)cc(Cl)c3)C2(Cl)Cl)ccc1Cl (relative stereo) [PF49, trans-2-Chloro-5-(2,2-dichloro-3-(3,5-dichlorophenyl)cyclopropane-1-carboxamido)-N-(4-fluoro-2-methylphenyl)-N-methylbenzamide] | 50 to 100% | B (More than 0-Less than 80) | 50 to 100%
2 | Cc1cc(F)ccc1N(C)C(=O)c1cc(NC(=O)[C@H]2[C@H](c3ccc(F)c(Cl)c3)C2(Cl)Cl)ccc1Cl (relative stereo) [PF50, trans-2-Chloro-5-(2,2-dichloro-3-(3-chloro-4-fluorophenyl)cyclopropane-1-carboxamido)-N-(4-fluoro-2-methylphenyl)-N-methylbenzamide] | 50 to 100% | A (80-100) | 50 to 100%
3 | COc1cc(NC(=O)c2cc(NC(=O)[C@H]3[C@H](c4cc(Cl)cc(Cl)c4)C3(Cl)Cl)ccc2Cl)ccc1F (relative stereo) [PF52, trans-2-Chloro-5-(2,2-dichloro-3-(3,5-dichlorophenyl)cyclopropane-1-carboxamido)-N-(4-fluoro-3-methoxyphenyl)benzamide] | 50 to 100% | A (80-100) | 50 to 100%
4 | Cc1cc(NC(=O)c2cc(NC(=O)[C@H]3[C@H](c4cc(Cl)cc(Cl)c4)C3(Cl)Cl)ccc2Cl)cc(C)c1F (relative stereo) [PF53, trans-2-Chloro-5-(2,2-dichloro-3-(3,5-dichlorophenyl)cyclopropane-1-carboxamido)-N-(4-fluoro-3,5-dimethylphenyl)benzamide] | 50 to 100% | A (80-100) | 50 to 100%
5 | Cc1c(F)ccc(NC(=O)c2cc(NC(=O)[C@H]3[C@H](c4cc(Cl)cc(Cl)c4)C3(Cl)Cl)ccc2Cl)c1C (relative stereo) [PF54, trans-2-Chloro-5-(2,2-dichloro-3-(3,5-dichlorophenyl)cyclopropane-1-carboxamido)-N-(4-fluoro-2,3-dimethylphenyl)benzamide] | 50 to 100% | A (80-100) | 50 to 100%
6 | O=C(Nc1ccc(-n2ccnc2)cc1)c1cc(NC(=O)[C@H]2[C@H](c3cc(Cl)cc(Cl)c3)C2(Cl)Cl)ccc1Cl (relative stereo) [PF56, trans-N-(4-(1H-Imidazol-1-yl)phenyl)-2-chloro-5-(2,2-dichloro-3-(3,5-dichlorophenyl)cyclopropane-1-carboxamido)benzamide] | 50 to 100% | A (80-100) | 50 to 100%
7 | O=C(Nc1ccc(-n2cncn2)cc1)c1cc(NC(=O)[C@H]2[C@H](c3cc(Cl)cc(Cl)c3)C2(Cl)Cl)ccc1Cl (relative stereo) [PF57, trans-N-(4-(1H-1,2,4-Triazol-1-yl)phenyl)-2-chloro-5-(2,2-dichloro-3-(3,5-dichlorophenyl)cyclopropane-1-carboxamido)benzamide] | 50 to 100% | A (80-100) | 50 to 100%
8 | COc1cc(F)ccc1NC(=O)c1cc(NC(=O)[C@H]2[C@H](c3cc(Cl)cc(Cl)c3)C2(Cl)Cl)ccc1Cl (relative stereo) [PF58, trans-2-Chloro-5-(2,2-dichloro-3-(3,5-dichlorophenyl)cyclopropane-1-carboxamido)-N-(4-fluoro-2-methoxyphenyl)benzamide] | 50 to 100% | A (80-100) | 50 to 100%
9 | O=C(Nc1ccc(OCC(F)(F)F)cc1)c1cc(NC(=O)[C@H]2[C@H](c3cc(Cl)cc(Cl)c3)C2(Cl)Cl)ccc1Cl (relative stereo) [PF62, trans-2-Chloro-5-(2,2-dichloro-3-(3,5-dichlorophenyl)cyclopropane-1-carboxamido)-N-(4-(2,2,2-trifluoroethoxy)phenyl)benzamide] | 50 to 100% | A (80-100) | 50 to 100%
10 | O=C(Nc1ccc(F)c(F)c1F)c1cc(NC(=O)[C@H]2[C@H](c3cc(Cl)cc(Cl)c3)C2(Cl)Cl)ccc1Cl (relative stereo) [PF68, trans-2-Chloro-5-(2,2-dichloro-3-(3,5-dichlorophenyl)cyclopropane-1-carboxamido)-N-(2,3,4-trifluorophenyl)benzamide] | 50 to 100% | A (80-100) | 50 to 100%
11 | N#Cc1ccccc1NC(=O)c1cc(NC(=O)[C@H]2[C@H](c3cc(Cl)cc(Cl)c3)C2(Cl)Cl)ccc1Cl (relative stereo) [PF72, trans-2-Chloro-N-(2-cyanophenyl)-5-(2,2-dichloro-3-(3,5-dichlorophenyl)cyclopropane-1-carboxamido)benzamide] | 50 to 100% | A (80-100) | 50 to 100%
12 | O=C(Nc1ccc([N+](=O)[O-])cc1F)c1cc(NC(=O)[C@H]2[C@H](c3cc(Cl)cc(Cl)c3)C2(Cl)Cl)ccc1Cl (relative stereo) [PF74, trans-2-Chloro-5-(2,2-dichloro-3-(3,5-dichlorophenyl)cyclopropane-1-carboxamido)-N-(2-fluoro-4-nitrophenyl)benzamide] | 50 to 100% | A (80-100) | 50 to 100%
13 | O=C(Nc1cc(Cl)cc(Cl)c1)c1cc(NC(=O)[C@H]2[C@H](c3cc(Cl)cc(Cl)c3)C2(Cl)Cl)ccc1Cl (relative stereo) [PF76, trans-2-Chloro-5-(2,2-dichloro-3-(3,5-dichlorophenyl)cyclopropane-1-carboxamido)-N-(3,5-dichlorophenyl)benzamide] | 50 to 100% | A (80-100) | 50 to 100%
14 | CC(=O)c1cc(F)ccc1NC(=O)c1cc(NC(=O)[C@H]2[C@H](c3cc(Cl)cc(Cl)c3)C2(Cl)Cl)ccc1Cl (relative stereo) [PF77, trans-N-(2-acetyl-4-fluorophenyl)-2-chloro-5-(2,2-dichloro-3-(3,5-dichlorophenyl)cyclopropane-1-carboxamido)benzamide] | 50 to 100% | A (80-100) | 50 to 100%
15 | CC(=O)c1ccc(NC(=O)c2cc(NC(=O)[C@H]3[C@H](c4cc(Cl)cc(Cl)c4)C3(Cl)Cl)ccc2Cl)c(F)c1 (relative stereo) [PF78, trans-N-(4-acetyl-2-fluorophenyl)-2-chloro-5-(2,2-dichloro-3-(3,5-dichlorophenyl)cyclopropane-1-carboxamido)benzamide] | 50 to 100% | A (80-100) | 50 to 100%
16 | O=C(Nc1ccc(-n2cnnc2)cc1)c1cc(NC(=O)[C@H]2[C@H](c3cc(Cl)cc(Cl)c3)C2(Cl)Cl)ccc1Cl (relative stereo) [PF102, trans-N-(4-(4H-1,2,4-Triazol-4-yl)phenyl)-2-chloro-5-(2,2-dichloro-3-(3,5-dichlorophenyl)cyclopropane-1-carboxamido)benzamide] | 50 to 100% | A (80-100) | 50 to 100%
17 | O=C(Nc1ccc(NC(=O)C2CC2)cc1)c1cc(NC(=O)[C@H]2[C@H](c3cc(Cl)cc(Cl)c3)C2(Cl)Cl)ccc1Cl (relative stereo) [PF107, trans-2-Chloro-N-(4-(cyclopropane-1-carboxamido)phenyl)-5-(2,2-dichloro-3-(3,5-dichlorophenyl)cyclopropane-1-carboxamido)benzamide] | 50 to 100% | A (80-100) | 50 to 100%
18 | O=C(Nc1ccc(NC(=O)C2CC2(F)F)cc1)c1cc(NC(=O)[C@H]2[C@H](c3cc(Cl)cc(Cl)c3)C2(Cl)Cl)ccc1Cl (relative stereo) [PF108, trans-2-chloro-5-(2,2-dichloro-3-(3,5-dichlorophenyl)cyclopropane-1-carboxamido)-N-(4-(2,2-difluorocyclopropane-1-carboxamido)phenyl)benzamide] | 50 to 100% | A (80-100) | 50 to 100%
19 | COC(=O)Nc1ccc(NC(=O)c2cc(NC(=O)[C@H]3[C@H](c4cc(Cl)cc(Cl)c4)C3(Cl)Cl)ccc2Cl)cc1 (relative stereo) [PF110, trans-methyl (4-(2-chloro-5-(2,2-dichloro-3-(3,5-dichlorophenyl)cyclopropane-1-carboxamido)benzamido)phenyl)carbamate] | 50 to 100% | B (More than 0-Less than 80) | 50 to 100%
20 | Cc1cc(NC(=O)c2cc(NC(=O)[C@H]3[C@H](c4cc(Cl)cc(Cl)c4)C3(Cl)Cl)ccc2Cl)ccc1Cl (relative stereo) [PF113, trans-2-Chloro-N-(4-chloro-3-methylphenyl)-5-(2,2-dichloro-3-(3,5-dichlorophenyl)cyclopropane-1-carboxamido)benzamide] | 50 to 100% | A (80-100) | 50 to 100%
21 | O=C(Nc1nnn[nH]1)c1cc(NC(=O)[C@H]2[C@H](c3cc(Cl)cc(Cl)c3)C2(Cl)Cl)ccc1Cl (relative stereo) [PF130, trans-2-Chloro-5-(2,2-dichloro-3-(3,5-dichlorophenyl)cyclopropane-1-carboxamido)-N-(1H-tetrazol-5-yl)benzamide] | 50 to 100% | B (More than 0-Less than 80) | 50 to 100%
